What all share (experiment): In vitro percent disease control (radii of spore growth on agar)
What all share (format): cell-based

One data set concerns Glomerella cingulata. The conditions noted are these: Colletotrichum gloeosporioides, read-out: % controlled, Glo. Put shortly:
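Compounds were dissolved in acetone (10% of final volume) plus water at 100 ppm and 50 ppm and mixed into potato-sucrose agar. G. cingulata was spotted centrally and incubated for several days in a growth room. Percent disease control was derived from the radii of spore growth.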

The subject of the next data set is Alternaria mali. The conditions noted are these: Alternaria mali, read-out: % controlled, Al. The gist of the method: (§1)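 Compounds in acetone (10% of final volume) diluted with water to 100 and 50 ppm, then mixed into potato-sucrose-agar with each fungus spotted centrally. Incubated several days in a growth room; percent disease control derived from radii of spore growth.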

The next data set deals with Rhizopus sp. The conditions noted are these: Rhizopus, read-out: % controlled, Rhi. sp. The gist of the method: as §1
The next data set deals with Physalospora baccae. The conditions noted are these: read-out: % controlled, Phy ba. The gist of the method: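 Compounds at 100 and 50 ppm (10% acetone) mixed into potato-sucrose-agar, fungus spotted centrally and grown several days in a growth room. Percent disease control derived from radii of spore growth.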
The subject of another data set is Botry tris cinerea. The conditions noted are these: read-out: % controlled, Bo ci. Put shortly:
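Compounds at 100 and 50 ppm (acetone 10% of final volume, rest water) mixed into potato-sucrose agar; Botrytis cinerea spotted at dish centre. After several days' incubation, percent disease control calculated from radii of spore growth.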

Another data set has as its system Rhizoctonia solani. The conditions noted are these: Rhizoctonia solani, read-out: % controlled, Rhy. so. The gist of the method:
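Test compounds at 100 ppm and 50 ppm (acetone 10% of final volume, then water) were mixed into potato-sucrose-agar, and the fungus was spotted at the dish centre. Dishes were incubated several days in a growth room. Percent disease control was derived from the radii of spore growth.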

The subject of data set [1] is Botryosphaeria dothidea Macrophoma sp. The conditions noted are these: Botryosphaeria dothidea, read-out: % controlled, Bo.do (Ma.). The gist of the method:
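Compounds (100 and 50 ppm, 10% acetone in water) were mixed into potato-sucrose-agar and the fungus was spotted centrally, then incubated several days in a growth room. Percent disease control came from radii of spore growth.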

The next data set concerns Phytophthora capsisi. The conditions noted are these: Phytophthora, read-out: % controlled, Phy ca. Put shortly:
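Compounds dissolved in acetone (10% of final volume) then water at 100 ppm and 50 ppm, mixed into potato-sucrose-agar; fungus spotted at plate centre and incubated several days. Percent disease control derived from radii of spore growth.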

The next data set relates to Pyricalaria oryzae. The settings on record: for inhibition of growth at 50 ppm: read-out: % controlled, Py. or., 50 ppm; for inhibition of growth at 100 ppm: read-out: % controlled, Py. or., 100 ppm. Put shortly:
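Compounds at 100 ppm and 50 ppm (10% acetone in water) mixed into potato-sucrose-agar, P. oryzae spotted centrally and incubated several days. Percent disease control derived from radii of spore growth.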

A further data set relates to Fusarium moniliforme. Put shortly: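 Compounds in 10% acetone/water at 100 and 50 ppm were mixed into potato-sucrose-agar, with Fusarium moniliforme spotted centrally. After several days' incubation, percent disease control was derived from radii of spore growth.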

We go through six compounds from patent publication US5235061A, “Fungicidal (1H-1,2,4-triazolyl)disilaalkanes” (priority 1991, dated 1993).

Consider `C=CC[Si](C[Si](C)(Cn1cncn1)c1ccc(OCC)cc1)(c1ccccc1)c1ccc(-c2ccccc2)cc1` (stereo not drawn) [6-(4-ethoxyphenyl)-6-methyl-4-phenyl-4-(4-phenylphenyl-4,6-disila-7-(1H-1,2,4-triazol-1-yl)-1-heptane], for which the inhibition of growth at 50 ppm is 80% with Glomerella cingulata; 100% in the data set with Alternaria mali; 75% in the data set with Rhizopus sp.; 100% in the data set on Physalospora baccae; 80% in the data set with Botry tris cinerea; 100% in the data set on Rhizoctonia solani. In addition, the values for the inhibition of growth at 50 ppm (in [1]; in the data set with Phytophthora capsisi; in the data set on Pyricalaria oryzae) were 100%, 60% and 75%, respectively. The inhibition of growth at 100 ppm in the data set with Glomerella cingulata was 90%; in the data set on Alternaria mali it was 100%; in the data set with Rhizopus sp. it was 75%; in the data set with Physalospora baccae, 100%; with Botry tris cinerea it was 85%; in the data set on Rhizoctonia solani, 100%. Moreover, the inhibition of growth at 100 ppm in [1] is 100%; with Phytophthora capsisi, 70%; in the data set with Pyricalaria oryzae it was 85%. In addition, the “% controlled, Fu. mo.” value in the data set with Fusarium moniliforme (50 ppm) and with Fusarium moniliforme (100 ppm) was 80% in each case.

For the compound `CCOc1ccc([Si](C)(C)C[Si](Cn2cncn2)(c2ccc(F)cc2)c2ccc(Cl)cc2)cc1` (stereo not drawn) [2-(4-chlorophenyl)-4-(4-ethoxyphenyl)-2-(4-fluorophenyl)-4-methyl-2,4-disila-1-(1H-1,2,4-triazol-1-yl)pentane], the inhibition of growth at 50 ppm was determined as 87% in the data set on Glomerella cingulata; 75% in the data set on Alternaria mali; 50% with Rhizopus sp.; 69% with Physalospora baccae; 90% with Botry tris cinerea; 96% in the data set with Rhizoctonia solani. Besides, the figures for the inhibition of growth at 50 ppm (in [1]; in the data set with Phytophthora capsisi; in the data set with Pyricalaria oryzae) were 74%, 23% and 100%, respectively. The inhibition of growth at 100 ppm amounted to 87% with Glomerella cingulata; 79% with Alternaria mali; 50% with Rhizopus sp.; 69% with Physalospora baccae; 90% in the data set with Botry tris cinerea; 96% in the data set on Rhizoctonia solani. The inhibition of growth at 100 ppm in [1] is 79%; with Phytophthora capsisi, 25%; in the data set on Pyricalaria oryzae it was 100%. For the same compound, the “% controlled, Fu. mo.” value in the data set on Fusarium moniliforme (50 ppm) and with Fusarium moniliforme (100 ppm) was 46% in each case.

For the compound `C[Si](C)(C[Si](C)(Cn1cncn1)c1ccc(Cl)cc1)c1ccc(F)cc1` (stereo not drawn) [2-(4-chlorophenyl)-4-(4-fluorophenyl)-2,4-dimethyl-2,4-disila-1-(1H-1,2,4-triazol-1-yl)pentane], the inhibition of growth at 50 ppm was found to be 67% in the data set on Glomerella cingulata; 38% with Alternaria mali; 18% in the data set with Rhizopus sp.; 20% in the data set with Physalospora baccae; 13% with Botry tris cinerea; 31% in the data set with Rhizoctonia solani. Also, the inhibition of growth at 50 ppm in data set [1] was determined as 43%; with Phytophthora capsisi, 0%; in the data set with Pyricalaria oryzae, 46%. Moreover, the inhibition of growth at 100 ppm in the data set with Glomerella cingulata was found to be 73%; with Alternaria mali, 38%; in the data set with Rhizopus sp. it was 20%; in the data set on Physalospora baccae, 20%; with Botry tris cinerea it was 18%; with Rhizoctonia solani it was 50%. The inhibition of growth at 100 ppm in data set [1] was 43%; in the data set with Phytophthora capsisi, 0%; in the data set with Pyricalaria oryzae it was 48%. Moreover, the figures for the “% controlled, Fu. mo.” value in the data set with Fusarium moniliforme (50 ppm) and in the data set with Fusarium moniliforme (100 ppm) were 34% and 58%, respectively.

For the compound `CCOc1ccc([Si](C)(Cn2cncn2)C[Si](C)(C)c2ccc(F)cc2)cc1` (stereo not drawn) [2-(4-ethoxyphenyl)-4-(4-fluorophenyl)-2,4-dimethyl-2,4-disila-1-(1H-1,2,4-triazol-1-yl)pentane], the inhibition of growth at 50 ppm with Glomerella cingulata came to 67%; in the data set on Alternaria mali, 38%; in the data set on Rhizopus sp. it was 29%; in the data set with Physalospora baccae, 28%; in the data set with Botry tris cinerea, 0%; in the data set on Rhizoctonia solani, 74%. Moreover, the inhibition of growth at 50 ppm in data set [1] was determined as 40%; in the data set on Phytophthora capsisi it was 9%; in the data set on Pyricalaria oryzae, 64%. Besides, the inhibition of growth at 100 ppm in the data set on Glomerella cingulata amounted to 69%; with Alternaria mali it was 44%; in the data set on Rhizopus sp. it was 32%; with Physalospora baccae, 28%; in the data set on Botry tris cinerea it was 0%; in the data set on Rhizoctonia solani, 89%. Also, the inhibition of growth at 100 ppm amounted to 46% in data set [1], 9% with Phytophthora capsisi and 64% with Pyricalaria oryzae. The “% controlled, Fu. mo.” value with Fusarium moniliforme (50 ppm) is given as 41%; in the data set with Fusarium moniliforme (100 ppm) it was 45%.

As to `C[Si](C)(C[Si](Cn1cncn1)(c1ccc(F)cc1)c1ccc(F)cc1)c1ccc(Cl)cc1` [4-(4-chlorophenyl)-2,2-bis(4-fluorophenyl)-4-methyl-2,4-disila-1-(1H-1,2,4-triazol-1-yl)pentane], the inhibition of growth at 50 ppm amounted to 87% in the data set with Glomerella cingulata; 32% with Alternaria mali; 78% in the data set on Rhizopus sp.; 80% in the data set with Physalospora baccae; 76% in the data set with Botry tris cinerea; 100% with Rhizoctonia solani. For the same compound, the results for the inhibition of growth at 50 ppm (in [1]; with Phytophthora capsisi; with Pyricalaria oryzae) were 76%, 10% and 76%, respectively. The inhibition of growth at 100 ppm was determined as 90% with Glomerella cingulata; 34% with Alternaria mali; 89% in the data set on Rhizopus sp.; 100% with Physalospora baccae; 80% with Botry tris cinerea; 100% in the data set on Rhizoctonia solani. For the same compound, the inhibition of growth at 100 ppm was 87% in data set [1], 12% with Phytophthora capsisi and 87% in the data set with Pyricalaria oryzae. Further, the “% controlled, Fu. mo.” value stood at 45% with Fusarium moniliforme (50 ppm) and 56% with Fusarium moniliforme (100 ppm).

In the case of `C=CC[Si](C)(Cn1cncn1)C[Si](CC=C)(c1ccccc1)c1ccccc1` (stereo not drawn) [6,6-diphenyl-4-methyl-4,6-disila-4-(1H-1,2,4-triazol-1-ylmethyl)-1,8-nonadiene], the inhibition of growth at 50 ppm with Glomerella cingulata is 89%; with Alternaria mali, 72%; in the data set with Rhizopus sp., 50%; in the data set with Physalospora baccae it was 84%; in the data set on Botry tris cinerea it was 77%; in the data set with Rhizoctonia solani, 80%. For the same compound, the inhibition of growth at 50 ppm is 80% in data set [1], 33% in the data set with Phytophthora capsisi and 100% in the data set with Pyricalaria oryzae. In addition, the inhibition of growth at 100 ppm came to 100% with Glomerella cingulata; 89% with Alternaria mali; 100% in the data set on Rhizopus sp.; 100% in the data set with Physalospora baccae; 100% with Botry tris cinerea; 100% in the data set with Rhizoctonia solani. The inhibition of growth at 100 ppm in [1] turned out to be 100%; in the data set on Phytophthora capsisi, 40%; in the data set with Pyricalaria oryzae, 100%. The “% controlled, Fu. mo.” value with Fusarium moniliforme (50 ppm) was determined as 60%; in the data set with Fusarium moniliforme (100 ppm) it was 100%.
